According to EP0071535B1, “(4-(2 and/or 3-Thienylacetamido)-phenoxy)-hydroxyaminopropanes, their preparation, their therapeutic use and intermediates” (CARPIBEM (CENTRE D'ACTIVITE ET DE RECHERCHE PHARMACEUTIQUE …, priority 1981, dated 1983):

Columns and labels:
[1] = tested on: rat génétiquement hypertendu: Rat OKAMOTO; assay: Antihypertensive activity in spontaneously hypertensive rats (tail-cuff systolic pressure and heart rate after oral dosing); format: in vivo
Description: Des rats mâles âgés de 13 à 21 semaines présentant une hypertension spontanée génétiquement transmissible (souche OKAMOTO provenance IFFA CREDO) sont placés dans une enceinte thermostatée à 38°C. Les rats sont laissés en situation libre. La pression artérielle est mesurée par un sphygmomanomètre Narco Biosystem. Un manchon est placé à la base de la queue et un détecteur enregistre le pouls en aval du manchon. Celui-ci est gonflé jusqu'à suppression du pouls il est ensuite progressivement dégonflé. La pression mesurée à la reprise des battements cardiaques est la pression artérielle systolique. On calcule la fréquence cardiaque à partir de l'enregistrement du pouls artériel. Les produits à étudiar sont mis en suspension el administrés par voie orale sous un volume de 1 ml pour 100 g de poids corporel. Les mesures sont répétées à intervalles réguliers.
Les valeurs moyennes avant traitement pour les différents lots de rats sont pour la pression artérielle systolique de 190 à 200 mmHg et pour la fréquence cardiaque de 305 à 350 battements par minute.
Le tableau III ci-après donne la moyenne des variations de la pression systolique (mmHg) de la fréquence cardisque (battements/minute) et les écarts type à la moyenne obtenus 1 heure 3 heures et 5 heures après administration orale.

[2] = tested on: effets β2 (diminution de la pression artérielle diastolique) de l'isoprénaline; assay: β-blocking activity: inhibition of the β2 effects of intravenous isoprenaline in anaesthetised dogs; format: in vivo, chiens; conditions: dog; for inhibition at 0.001 mg/kg / inhibition at 0.003 mg/kg / inhibition at 0.01 mg/kg / inhibition at 0.1 mg/kg: Canis lupus familiaris, iv, inhibition given with negative sign, read-out: % d'inhibition des effets β2^⊕ de l'Isoprénaline; for inhibition at 0.001 mg/kg: 0,001 mg/kg I.V.; for inhibition at 0.003 mg/kg: 0,003 mg/kg I.V.; for inhibition at 0.01 mg/kg: 0,010 mg/kg I.V.; for inhibition at 0.1 mg/kg: 0,100 mg/kg I.V.
Description: (§1) Des chiens tout-venants mâles ou femelles sont anesthésiés au mébubarbital sodique (30 mg/kg I.V.) et ventilés artificiellement par une pompe Pesty RPP. Ils sont supplémentés en oxygène.
(§2) On mesure: • - la pression carotidienne systolique et diastolique • - la force contractile du myocarde.
(§3) Les signaux sont amplifiés et enregistrés sur Dynograph Beckman.
(§4) L'activité β bloquante adrénergique a été étudiée vis-à-vis des effets β1 (augmentation de la force contractile du myocarde) et des effets P2 (diminution de la pression artérielle disstolique) de l'isoprénaline administrée par voie intraveineuse.
(§5) On calcule le pourcentsge d'inhibition des effets β1 et des effets β2 de l'isoprénaline en fonction des doses (mg.kg I.V.) des différents exemples.
(§6) Les exemples sont injectés dans le veine saphène aux doses (exprimées en base) de: 0,0003 0,001 0,003 0,01 0,1 1,0 et 4,0 ou 8,0 mg.kg-1.

[3] = tested on: effets β1 (augmentation de la force contractile du myocarde) de l'isoprénaline; assay: β-blocking activity: inhibition of the β1 effects of intravenous isoprenaline in anaesthetised dogs; format: in vivo, chiens; conditions: dog; for inhibition at 0.001 mg/kg / inhibition at 0.003 mg/kg / inhibition at 0.01 mg/kg / inhibition at 0.1 mg/kg: Canis lupus familiaris, iv, inhibition given with negative sign, read-out: % d'inhibition des effets β1^(+) de l'Isoprénaline; for inhibition at 0.001 mg/kg: 0,001 mg/kg I.V.; for inhibition at 0.003 mg/kg: 0,003 mg/kg I.V.; for inhibition at 0.01 mg/kg: 0,010 mg/kg I.V.; for inhibition at 0.1 mg/kg: 0,100 mg/kg I.V.
Description: as §1, §2, §3, §4, §5, §6

[4] = 128 mg.kg^-1 V.O, T+5 heures, mean
[5] = 0.003 mg.kg^-1 voie intraveineuse
[6] = 0.01 mg.kg^-1 voie intraveineuse
[7] = 0.1 mg.kg^-1 voie intraveineuse
[8] = 1.0 mg.kg^-1 voie intraveineuse
[9] = 8.0 mg.kg^-1 voie intraveineuse
[10] = 0.001 mg.kg^-1 voie intraveineuse
[11] = 4.0 mg.kg^-1 voie intraveineuse

Compound	Fréquence cardiaque Δ (battements/min) T+1 heure m (sm) ([1]; 128 mg.kg^-1 V.O)	Pression systolique Δ (mmHg) T+1 heure m (sm) ([1]; 128 mg.kg^-1 V.O)	Fréquence cardiaque Δ (battements/min) T+3 heures m (sm) ([1]; 128 mg.kg^-1 V.O)	Pression systolique Δ (mmHg) T+3 heures m (sm) ([1]; 128 mg.kg^-1 V.O)	Fréquence cardiaque Δ (battements/min) T+5 heures m (sm) ([1]; 128 mg.kg^-1 V.O, T+5 heures)	Pression systolique Δ (mmHg) T+5 heures m (sm) ([1]; 128 mg.kg^-1 V.O, T+5 heures)	Pourcentages d'inhibition des effets β2 de l'Isoprénaline [2, 8] [%]	inhibition at 0.001 mg/kg [2] [%]	inhibition at 0.003 mg/kg [2] [%]	inhibition at 0.01 mg/kg [2] [%]	inhibition at 0.1 mg/kg [2] [%]	Pourcentages d'inhibition des effets β1 de l'Isoprénaline [3, 10] [%]	Pourcentages d'inhibition des effets β1 de l'Isoprénaline [3, 5] [%]	Pourcentages d'inhibition des effets β1 de l'Isoprénaline [3, 6] [%]	Pourcentages d'inhibition des effets β1 de l'Isoprénaline [3, 7] [%]	Pourcentages d'inhibition des effets β1 de l'Isoprénaline [3, 8] [%]	inhibition at 0.001 mg/kg [3] [%]	inhibition at 0.003 mg/kg [3] [%]	inhibition at 0.01 mg/kg [3] [%]	inhibition at 0.1 mg/kg [3] [%]	also measured
CC(C)(C)NCC(O)COc1ccc(NC(=O)Cc2cccs2)cc1C#N (stereo not drawn) [exemple 7, 1-[2-cyano 4-(2-thiénylacétamido)phénoxy] 3-terbutylamino 2-propanol]	+36 (4) battements/min	-27 (5) mmHg	+29 (4) battements/min	-27 (5) mmHg	+25 (9) battements/min	-31 (5) mmHg	88	0	-4	-16	-36	24	70	86	100	100	-24	-70	-86	-100	Pression systolique Δ (mmHg) T+1 heure m ([1]; 128 mg.kg^-1 V.O, mean): -27 mmHg; Fréquence cardiaque Δ (battements/minute) T + 3 heures m ([1]; 128 mg.kg^-1 V.O, mean): +29 battements/minute; Pression systolique Δ (mmHg) T+3 heures m ([1]; 128 mg.kg^-1 V.O, mean): -27 mmHg; Pression systolique Δ (mmHg) T+5 heures m [1, 4]: -31 mmHg; Pourcentages d'inhibition des effets β2 de l'Isoprénaline [2, 5]: 4%; Pourcentages d'inhibition des effets β2 de l'Isoprénaline [2, 6]: 16%; Pourcentages d'inhibition des effets β2 de l'Isoprénaline [2, 7]: 36%; Pourcentages d'inhibition des effets β2 de l'Isoprénaline [2, 9]: 100%; Pourcentages d'inhibition des effets β1 de l'Isoprénaline [3, 9]: 100%
CC(C)NCC(O)COc1ccc(NC(=O)Cc2cccs2)cc1C#N (stereo not drawn) [exemple 8, 1-[2-cyano 4-(2-thiénylacétamido)phénoxy] 3-isopropylamino 2-propanol]	+31 (11) battements/min	-39 (8) mmHg	+36 (7) battements/min	-31 (9) mmHg	+12 (13) battements/min	-25 (5) mmHg	16	0	0	0	0	5	12	38	64	86	-5	-12	-38	-64	Pression systolique Δ (mmHg) T+1 heure m ([1]; 128 mg.kg^-1 V.O, mean): -39 mmHg; Fréquence cardiaque Δ (battements/minute) T + 3 heures m ([1]; 128 mg.kg^-1 V.O, mean): +36 battements/minute; Pression systolique Δ (mmHg) T+3 heures m ([1]; 128 mg.kg^-1 V.O, mean): -31 mmHg; Fréquence cardiaque Δ (battements/minute) T + 5 heures m [1, 4]: +12 battements/minute; Pression systolique Δ (mmHg) T+5 heures m [1, 4]: -25 mmHg; Pourcentages d'inhibition des effets β2 de l'Isoprénaline [2, 11]: 100%; Pourcentages d'inhibition des effets β1 de l'Isoprénaline [3, 11]: 100%
CC(C)(C)NCC(O)COc1ccc(NC(=O)Cc2ccsc2)cc1C#N (stereo not drawn) [exemple 9, 1-[2-cyano 4-(3-thiénylacétamido)phénoxy] 3-terbutylamino 2-propanol]							100	0	0	-8	-42	22	74	91	100	100	-22	-74	-91	-100	Fréquence cardiaque Δ (battements/min) T+1 heure m (sm) ([1]; 64 mg.kg^-1 V.O): +27 (11) battements/min; Pression systolique Δ (mmHg) T+1 heure m (sm) ([1]; 64 mg.kg^-1 V.O): -16 (4) mmHg; Fréquence cardiaque Δ (battements/min) T+3 heures m (sm) ([1]; 64 mg.kg^-1 V.O): +13 (13) battements/min; Pression systolique Δ (mmHg) T+3 heures m (sm) ([1]; 64 mg.kg^-1 V.O): -25 (8) mmHg; Fréquence cardiaque Δ (battements/min) T+5 heures m (sm) ([1]; 64 mg.kg^-1 V.O, T+5 heures): +13 (13) battements/min; Pression systolique Δ (mmHg) T+5 heures m (sm) ([1]; 64 mg.kg^-1 V.O, T+5 heures): -38 (6) mmHg; Pourcentages d'inhibition des effets β2 de l'Isoprénaline [2, 6]: 8%; Pourcentages d'inhibition des effets β2 de l'Isoprénaline [2, 7]: 42%; Pourcentages d'inhibition des effets β2 de l'Isoprénaline [2, 9]: 100%; Pourcentages d'inhibition des effets β1 de l'Isoprénaline [3, 9]: 100%
CC(C)NCC(O)COc1ccc(NC(=O)Cc2ccsc2)cc1C#N (stereo not drawn) [exemple 10, 1-[2-cyano 4-(3-thiénylacétamido)phénoxy] 3-isopropylamino 2-propanol]	+25 (15) battements/min	-13 (12) mmHg	+28 (7) battements/min	-5 (9) mmHg	+25 (7) battements/min	-26 (8) mmHg		-21		-33	-39						-22		-47	-91	
CC(C)NCC(O)COc1ccc(NC(=O)Cc2ccsc2)cc1Cl (stereo not drawn) [exemple 46, 1-[2-chloro 4-(3-thiénylacétamido)phénoxy] 3-isopro-pylamino 2-propanol]								-5	-5	-20	-19						-17	-44	-84	-100	
CC(C)(C)NCC(O)COc1ccc(NC(=O)Cc2cccs2)cc1F (stereo not drawn) [exemple 47, 1-[2-fluoro 4-(2-thiénylscétamido)phénoxy] 3-terbutylamino 2-propanol]								-24	-4	0	-12						-12	-33	-66	-96	
